pEC50: −log10 of the molar value.
Tests used:
[1] = biological target: Recombinant AMPK α1/β1/γ1 complex (Homo sapiens (Human), UniProt Q13131+Q9Y478); assay: In vitro pAMPK1 kinase activation assay (ADP-Glo, SAMS peptide); format: biochemical; conditions: AMPK α1/β1/γ1 pre-activated with CAMKK2; 12-point curve; 15 min compound incubation
Procedure, shortened: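 Activation read as ADP formation (ADP-Glo) from SAMS peptide phosphorylation, after a 15-minute compound pre-incubation with the complex pre-phosphorylated by CAMKK2. EC50 derived from 12-point curves interpolated against an ATP:ADP standard curve.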

[2] = Pharmacokinetics (oral bioavailability) in C57BL/6 mice; conditions: mouse, in vivo; for bioavailability: IV 1 mg/kg, PO 30 mg/kg; for Vd: following IV administration, 1 mg/kg, read-out: volume of distribution
Method: Selected compounds were tested for pharmacokinetics in C57BL/6 mice. Compounds 1, 4, 31, 32, 40, 55, 57 and 60 were dosed IV at 1 mg/kg as a formulation of 0.2 mg/mL in 5% DMSO+30% PEG400+65% water and were dosed PO at 30 mg/kg as a formulation of 3 mg/mL in 0.25% MC+5% Tween 80+0.02% SDS. Compound 2 was dosed IV at 1 mg/kg as a formulation of 0.2 mg/mL in 5% ethanol +95% saline and was dosed PO at 30 mg/kg as a formulation of 3 mg/mL in 0.25% MC+5% Tween 80+0.02% SDS.

[3] = in vitro; conditions: human; for Papp A→B at 2 h, 2 μM / Papp B→A at 2 h, 2 μM: Caco-2, pH 7.4; for efflux ratio at 2 h, 2 μM: Caco-2, pH 7.4, Efflux Ratio
Method: (§1) Caco-2 cells purchased from ATCC were seeded onto […] (PET) in 96-well BD Insert plates at 1×10^5 cells/cm^2, and refreshed medium every 4-5 days until to the 21st to 28th day for confluent cell monolayer formation. The transport buffer in the study was HBSS with 10 mM HEPES at pH 7.40±0.05. Test compounds were tested at 2 μM bi-directionally in duplicate. Digoxin was tested at 10 μM bi-directionally in duplicate, while nadolol and metoprolol were tested at 2 μM in A to B direction in duplicate. Final DMSO concentration was adjusted to less than 1%.
(§2) The plate was incubated for 2 hours in CO2 incubator at 37±1° C., with 5% CO2 at saturated humidity without shaking. All samples were mixed with acetonitrile containing internal standard and were centrifuged at 4000 rpm for 10 min. Subsequently, 100 μL supernatant solution was diluted with 100 μL distilled water for LC/MS/MS analysis. Concentrations of test and control compounds in starting solution, donor solution, and receiver solution were quantified by LC/MS/MS, using peak area ratio of analyte/internal standard.

[4] = tested on: Caco-2 cells; assay: in vitro; conditions: for permeability (in words): Caco-2
Method: as §1, §2

[5] = tested on: Acute Dextran Sulfate Sodium (DSS) Colitis Model; assay: Intestinal barrier function in mouse acute DSS colitis model (FITC-dextran); format: in vivo, C57B1/6 mice; conditions: 30 mg/kg QD oral; 3% DSS 7 days; serum FITC-dextran
Method: Compounds were formulated in vehicle (0.25% methyl cellulose, 5% Tween 80, 0.02% sodium dodecyl sulfate (SDS) in Hanks' Buffered Salt Solution with Ca^2+ and Mg^2+). Vehicle or compound was administered once daily by oral gavage to C57B1/6 mice. After 3 days of pre-dosing, dextran sulfate sodium (DSS) was simultaneously administered at 3% in drinking water, and appropriate water-only controls were included.
After 7 days of DSS administration, animals treated were switched back to their regular water source and administered a single oral bolus dose of FITC-dextran (FD) four hours prior to necropsy. The animals were sacrificed by cardiac puncture and serum was collected. The concentration of […] present in serum was determined by measuring fluorescence intensity on a standard plate reader, and fitting values back to a standard curve.

[6] = tested on: Chemotherapy-induced Intestinal Injury Model; assay: Diarrhea in mouse chemotherapy-induced (5FU) intestinal injury model; format: in vivo, BALB/c mice; conditions: 5FU 400 mg/kg IP; for Diarrhea Score Day 5 / Diarrhea Score Day 6: score 0-3
Method: Compounds were formulated in vehicle (0.25% methyl cellulose, 5% Tween 80, 0.02% sodium dodecyl sulfate (SDS) in Hanks' Buffered Salt Solution with Ca' and Mg'). On day 1, either saline or a 400 mg/kg dose of 5-fluorouracil (5FU) in saline was administered by intraperitoneal injection to BALB/c mice. Starting on day 2, vehicle or compound was administered twice a day by oral gavage. From days 5 to 6 post-5FU, the animals were scored for diarrhea severity once a day. The diarrhea was scored 0-3 as follows: 0—normal consistency (black and solid), 1—soft (black and a bit lighter/yellow), 2—loosely shaped stool (yellowish and somewhat watery), 3—extreme diarrhea (very watery).

[7] = tested on: blood glucose levels; assay: Intraperitoneal (IP) glucose tolerance test in mice; format: in vivo; conditions: for % Change in Average Total AUC (0-90 min) vs. Vehicle: blood glucose, glucose 2 g/kg IP; for change in blood glucose AUC vs. vehicle / systemic AMPK activation (in words): 30 mpk for all compounds, up to 100 mpk for Compound 4
Source text: Systemic AMPK target engagement in vivo can be assessed by measuring the glucose levels in blood following administration of compounds, whereby AMPK activation in skeletal muscle leads in a decrease in overall blood glucose levels.
Compounds were formulated in vehicle (0.25% methyl cellulose, 5% Tween 80, 0.02% sodium dodecyl sulfate (SDS) in Hanks' Buffered Salt Solution with Ca^2+ and Mg^2). Immediately prior to compound dosing, the tip of the tail was removed with scissors and a drop of blood was collected onto a glucometer strip (Bayer Contour Next) for a −1 hour blood glucose measure. The mice were then immediately administered vehicle or compound at 10 mL/kg PO. Approximately one hour later, mice were tail bled for a 0 min blood glucose reading, and then immediately after were administered D(+) glucose (2 g/kg, made up in saline) at 5 mL/kg IP. Tail bleeds were then performed on all mice at 20 min, 40 min, 60 min, and 90 min post D(+) glucose administration for blood glucose measures. Area under the curves (AUCs) for blood glucose measures were then calculated for each treatment from 0-90 mins.

[8] = tested on: Madin-Darby Canine Kidney (MDCK) cells; assay: In vitro MDCK epithelial permeability assay (calcium switch, FITC-dextran); format: cell-based; conditions: low calcium medium, MDCK monolayers
Source text: In order to quantitatively measure the effects of transporter substrate AMPK activators on epithelial permeability in vitro, standard calcium switch protocols from the literature were adapted for use with Madin-Darby Canine Kidney (MDCK) cells grown on Corning Transwell inserts for use with fluorescein isothiocyanate-dextran, average molecular weight 4 kDa (FITC-dextran). FITC-dextran is a large, metabolically inert sugar molecule that is not readily transferrable across healthy epithelial barriers in vitro or in vivo. This compound has been tagged with a fluorophore to easily track its movement.
Briefly, MDCK cells were seeded onto Transwell inserts and grown according to manufacturer instructions until confluent. On the day of the experiment, a baseline reading was taken in standard growth media in which FITC-dextran was spiked into the apical chamber and the percent permeation of FITC-dextran from the apical to the basolateral chamber was measured. The inserts were then washed in low calcium medium (LCM) containing either vehicle or compound to remove residual FITC-dextran and calcium, and FITC-dextran was once again spiked into the apical chamber and the percent permeation in LCM was measured. […] The fold induction of FITC-dextran permeation to the basolateral chamber when each well was transferred from baseline growth media to LCM was then calculated.

[9] = Caco-2, pH 7.4, Mean Recovery A to B
[10] = Caco-2, pH 7.4, Mean Recovery B to A

Sequence of Recombinant AMPK α1/β1/γ1 complex (Q13131 whole entry): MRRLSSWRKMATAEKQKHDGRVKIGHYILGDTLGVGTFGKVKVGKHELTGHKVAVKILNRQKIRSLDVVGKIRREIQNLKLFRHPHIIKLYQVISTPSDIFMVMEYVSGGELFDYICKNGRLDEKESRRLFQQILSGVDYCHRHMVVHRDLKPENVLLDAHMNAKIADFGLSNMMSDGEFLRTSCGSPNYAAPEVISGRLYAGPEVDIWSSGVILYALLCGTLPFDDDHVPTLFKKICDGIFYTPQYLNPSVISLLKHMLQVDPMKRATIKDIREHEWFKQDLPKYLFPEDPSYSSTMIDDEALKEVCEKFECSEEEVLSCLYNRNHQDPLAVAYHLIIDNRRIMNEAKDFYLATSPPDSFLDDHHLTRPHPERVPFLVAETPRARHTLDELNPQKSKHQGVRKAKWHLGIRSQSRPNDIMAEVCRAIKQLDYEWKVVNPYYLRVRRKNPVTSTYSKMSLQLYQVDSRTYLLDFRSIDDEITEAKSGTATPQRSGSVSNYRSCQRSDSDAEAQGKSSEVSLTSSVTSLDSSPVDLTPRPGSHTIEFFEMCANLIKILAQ
Sequence of Recombinant AMPK α1/β1/γ1 complex (Q9Y478 whole entry): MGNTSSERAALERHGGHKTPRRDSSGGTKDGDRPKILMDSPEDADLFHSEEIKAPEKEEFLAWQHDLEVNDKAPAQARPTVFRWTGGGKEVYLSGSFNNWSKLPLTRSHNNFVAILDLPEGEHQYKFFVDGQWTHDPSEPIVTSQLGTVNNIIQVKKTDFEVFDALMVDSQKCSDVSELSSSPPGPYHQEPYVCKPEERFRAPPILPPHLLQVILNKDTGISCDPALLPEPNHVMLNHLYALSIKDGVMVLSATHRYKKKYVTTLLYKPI
Sequence of Recombinant AMPK α1/β1/γ1 complex (P54619 whole entry partner): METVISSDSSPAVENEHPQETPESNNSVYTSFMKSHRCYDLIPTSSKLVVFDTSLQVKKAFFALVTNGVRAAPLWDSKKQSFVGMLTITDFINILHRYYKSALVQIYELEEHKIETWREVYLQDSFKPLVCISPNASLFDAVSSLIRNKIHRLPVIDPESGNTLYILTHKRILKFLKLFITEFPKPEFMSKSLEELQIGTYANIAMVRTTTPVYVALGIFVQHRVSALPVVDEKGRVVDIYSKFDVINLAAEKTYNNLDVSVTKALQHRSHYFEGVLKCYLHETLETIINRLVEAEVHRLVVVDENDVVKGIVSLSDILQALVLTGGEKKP

Compound | pEC50 [1] | half-life [2] [h] | bioavailability [2] [%] | Vd [2] [L/kg] | Papp A→B at 2 h, 2 μM [3] [×10⁻⁶ cm/s] | Papp B→A at 2 h, 2 μM [3] [×10⁻⁶ cm/s] | efflux ratio at 2 h, 2 μM [3] | recovery at 2 h, 2 μM [3, 9] [%] | recovery at 2 h, 2 μM [3, 10] [%] | permeability (in words) [4] | Change in Fluorescence Intensity vs. Vehicle [5] [%] | % Change in Average Total AUC (0-90 min) vs. Vehicle ([7]; 30 mpk PO) [%] | change in blood glucose AUC vs. vehicle / systemic AMPK activation (in words) [7] | further results
OC[C@@H](O)[C@@H](O)[C@H](O)[C@@H](O)CNCc1ccc(-c2ccc(-c3nc4nc(O[C@@H]5CO[C@H]6[C@@H]5OC[C@H]6O)[nH]c4cc3Cl)cc2)cc1 [Compound 4, (2R,3R,4R,5S)-6-(((4′-(6-chloro-2-(((3R,3aR,6R,6aR)-6-hydroxyhexahydrofuro[3,2-b]furan-3-yl)oxy)-1H-imidazo[4,5-b]pyridin-5-yl)-[1,1′-biphenyl]-4-yl)methyl)amino)hexane-1,2,3,4,5-pentaol] | 10.00 | 1.4 | < 1 | < 1 | < 0.48 | 0.71 | > 1.48 | < 99.6 | 102 | low permeability | −43 | −0.9 | do not lead to activation of AMPK in skeletal muscle | Diarrhea Score Day 5, % Change vs. Vehicle ([6]; 3 mpk BID oral): −16%; Diarrhea Score Day 6, % Change vs. Vehicle ([6]; 3 mpk BID oral): −44%; Diarrhea Score Day 5 ([6]; 3 mpk BID oral): 0.75; Diarrhea Score Day 6 ([6]; 3 mpk BID oral): 1.00; Diarrhea Score Day 5, % Change vs. Vehicle ([6]; 10 mpk BID oral): −72%; Diarrhea Score Day 6, % Change vs. Vehicle ([6]; 10 mpk BID oral): −79%; Diarrhea Score Day 5 ([6]; 10 mpk BID oral): 0.25; Diarrhea Score Day 6 ([6]; 10 mpk BID oral): 0.38; % Change in Average Total AUC (0-90 min) vs. Vehicle ([7]; 100 mpk PO): +2.3%
O=C(NCCOCCO)c1ccc(-c2ccc(-c3cc4nc(O[C@@H]5CO[C@H]6[C@@H]5OC[C@H]6O)[nH]c4cc3Cl)cc2)cc1 [Compound 31, 4′-(6-chloro-2-(((3R,3aR,6R,6aR)-6-hydroxyhexahydrofuro[3,2-b]furan-3-yl)oxy)-1H-benzo[d]imidazol-5-yl)-N-(2-(2-hydroxyethoxy)ethyl)-[1,1′-biphenyl]-4-carboxamide] | 9.07 | 1.7 | < 10 | < 5 | 0.115 | 31.7 | – | 83.2 | 97.8 | low permeability | −41 | – | – | Diarrhea Score Day 5, % Change vs. Vehicle ([6]; 30 mpk BID oral): −67%; Diarrhea Score Day 6, % Change vs. Vehicle ([6]; 30 mpk BID oral): −61%; Diarrhea Score Day 5 ([6]; 30 mpk BID oral): 0.43; Diarrhea Score Day 6 ([6]; 30 mpk BID oral): 0.63
O=C(NC[C@H](O)[C@@H](O)[C@H](O)[C@H](O)CO)c1ccc(-c2ccc(-c3nc4nc(O[C@@H]5CO[C@H]6[C@@H]5OC[C@H]6O)[nH]c4cc3Cl)cc2)cc1 [Compound 1, 4′-(6-chloro-2-(((3R,3aR,6R,6aR)-6-hydroxyhexahydrofuro[3,2-b]furan-3-yl)oxy)-1H-imidazo [4,5-b]pyridin-5-yl)-N-((2S,3R,4R,5R)-2,3,4,5,6-pentahydroxyhexyl)-[1,1′-biphenyl]-4-carboxamide] | 10.30 | – | < 1 | < 5 | < 0.25 | 0.73 | > 2 | < 82.6 | 89.9 | low permeability | – | −7.5 | do not lead to activation of AMPK in skeletal muscle | Efflux Ratio ([4]; human, Caco-2, 2 h, 2 μM, pH 7.4): >2.90; reduction of FITC-dextran permeation relative to vehicle ([8]; 0.1 μM): 33%; reduction of FITC-dextran permeation relative to vehicle ([8]; 10 μM): 35%
